The values below come from PubChem BioAssay AID602486 (The Scripps Research Institute Molecular Screening Center, 2012).

Active and inactive are the calls of the source. No rule for the calls is given here.

In this assay the target is 3C-like protease (3CLpro), SARS coronavirus (filed as Infectious bronchitis virus). The experiment in a line: PubChem AID 602486. Particulars: recombinant 3CLpro, fluorogenic peptide cleavage.

Regarding `CC(=O)Nc1ccc(N(C(=O)Cn2cc(-c3ccccc3)nn2)C(C(=O)NC(C)(C)C)c2ccsc2)cc1` (stereo unspecified), the IC50 entry was “inactive”.
